Consider 1 compound from patent US20180201594A1, “Compound pac-1 or salt thereof and pharmaceutical composition comprising same” (priority 2015, published 2018).

Structures are written as SMILES. ≈ marks a conversion by molar mass, not a printed value. Marks after values point to notes of the source that are not given here.

The subject of one data set is HGC-27 cells. Description: Two-dimensional migration (cell scratch assay). It is filed as cell-based. The note with it: n = 3. The method, then: HGC-27 cells in logarithmic growth phase were collected. The cell with density of 5×10^5 cells/mL was spread onto 24-well plates (0.5 mL per well). RMPI-1640 culture medium with 10% fetal bovine serum was added and cultured for 24 h to form monolayer cells. The monolayer cells were scratched in a line by 20 μL pipette gun tip, which was washed with PBS three times. Then, drug-containing media with 2% fetal bovine serum s were added, which concentrations were 2 μM, 4 μM, respectively. The media were cultured in the incubator with 37 ? , 5% CO2 saturated humidity. Sampled at 0, 4, 8, 12 h and took the pictures. The area where cells were migrated from scratch edge to scratch within the same field was counted by software.

In a further data set the test system is HT-1080 cells. Briefly: HT-1080 cell invasion (Transwell, matrigel). It is filed as cell-based, human. As to the method: The matrigel was thawed at 4° C. overnight and diluted with serum-free medium precooled at 4° ? t 1:2. 30 μL of the diluted matrigel was added vertically in the center of the bottom of the upper chamber, allowed to stand at r.m. for 20 min, and then incubated at 37° C. for 60 min. It was observed under the microscope until gelling, hydrated with the serum-free medium for use. The treated tumor cells with drugs for 48 h were digested and collected, and then the cells were suspended with serum free medium. The cell intensity was adjusted into 2.5×10^5 cells/mL, and kept cultured in the incubator for another 24 h. The upper chamber was taken, with methanol fixation for 30 min, dyed with Giemsa stain for 30 min, rinsed with clean water twice. The cells on the bottom membrane surface of the upper chamber were carefully wiped off with a wet cotton swab, dried in the air. With the bottom up, they were transferred onto glass slide and sealed with neutral gum. Under the microscope, nine random fields were taken and the transmembrane cells therein were counted. The average values were statistically calculated.

Data set [1] concerns HGC-27, K562/A02, A549, HT-1080 cells. Briefly: Tumor cell proliferation (MTT or CCK-8). It is filed as cell-based, human. The note with it: 48 h, FIG. 5-8. An excerpt: Experimental cells: gastric cancer cell line HGC-27, non-small cell lung cancer A549, human chronic myeloid leukemia cells doxorubicin resistant strains K562/A02, human fibrosarcoma HT-1080, human chronic myeloid leukemia cell K562.
Experimental materials: PAC-1 needle crystal (prepared according to the method described in Quinn P. Peterson et al., J. Med. Chem. 2009, 52, 5721-5731), MTT solution (Amresco specification: 1 g, batch number: 2035B358), DMSO (Analytical Pure, Beijing Chemical Factory), 96-well plates (Corning), CCK-8 (Japanese Tongren Chemical Research Institute, specification: 500test, batch number: DJ706), fetal bovine serum was the product from the United States GIBCO, batch number: 608759, RPMI-1640 is the product of Hyclone, batch number: NWK0492, 0.25% Trypsin-EDTA is the product from the United States GIBCO company, batch number: 10T774768, DMSO: USA Sigma Corporation.
The cells in logarithmic growth phase were collected. The cells was digested and the cell density was adjusted into 1-5×10^5 cells/mL, 100 μL per well in 96-well culture plate. The plated was cultured in a incubator with 37 ? , 5% CO2 saturated humidity. After adherent, different concentrations of PAC-1 and ZYS-1 were added for dosing groups. 6 dosage groups were set, with at least three parallel wells set in each group. […]

The nature of data set [2]: Solubility comparison of ZYS-1 and PAC-1 needle crystal (HPLC). To be noted: Water, room temperature. It is filed as physicochemical.

`C=CCc1cccc(/C=N/NC(=O)CN2CCN(Cc3ccccc3)CC2)c1O` [ZYS-1, 1-Piperazineacetic acid, 4-(phenylmethyl)-2-[[2-hydroxy-3-(2-propen-1-yl)phenyl]methylene]]: the “area of cell migration into scratch” value in the data set with HGC-27 cells (2 μM, 4 h) was 0.12 ± 0.01 mm^2; in the data set on HGC-27 cells (2 μM, 8 h), 0.16 ± 0.02 mm^2; in the data set with HGC-27 cells (2 μM, 12 h) it was 0.20 ± 0.02 mm^2; in the data set with HGC-27 cells (4 μM, 4 h), 0.04 ± 0.01* mm^2; with HGC-27 cells (4 μM, 8 h) it was 0.07 ± 0.01* mm^2; with HGC-27 cells (4 μM, 12 h), 0.08 ± 0.02** mm^2. Also, the “numbers of invasive cells” value is “smaller than those from the control group” with HT-1080 cells (2 μM and 4 μM administration groups); “No cell from 8 μM administration group invaded into the lower chamber” with HT-1080 cells (8 μM administration group). In addition, the “antitumor efficacy (cell proliferation) compared with PAC-1 needle crystal” value in data set [1] was “stronger antitumor efficacy than PAC-1 needle crystal”. For the same compound, in data set [2], the Solubility – broadly, the concentration that dissolves in the medium under given conditions – is 5.6 µg/mL (≈ 14.3 µM).
